Reference: patent publication US8461150B2, “Chalcone linked pyrrolo[2,1-c][1, 4]benzodiazepine hybrids as potential anticancer agents and process for the preparation thereof” (Council of Scientific & Industrial Research, priority 2008, dated 2013)

Key:
Assay type in all cases: cell-based, human
[1] = system: Leukemia cancer cell lines; assay: NCI in vitro anticancer screen, SRB assay, 48 h, panel average; details: average of six to eight cell lines, 48 h exposure
Description: (§1) Biological Activity: The in vitro cell line studies were carried out at the National Cancer Institute, Maryland, USA.
(§2) Cytotoxicity: • The compounds 6b) 7-Methoxy-8-{4-[1-(4-fluorophenyl)-3-(4-hydroxy-3-methoxyphenyl)-2-propen-1-one]butyl}-oxy-(11aS)-1,2,3,11a-5H-pyrrolo[2,1-c][1,4]benzodiazepin-5-one; • (6c) 7-Methoxy-8-{5-[1-(4-fluorophenyl)-3-(4-hydroxy-3-methoxyphenyl)-2-propen-1-one]pentyl}-oxy-(11aS)-1,2,3,11a-5H-pyrrolo[2,1-c][1,4]benzodiazepin-5-one; • (6g) 7-Methoxy-8-{3-[1-(2-hydroxyphenyl)-3-(4-hydroxy-3-methoxyphenyl)-2-propen-1-one]propyl}-oxy-(11aS)-1,2,3,11a-5H-pyrrolo[2,1-c][1,4]benzodiazepin-5-one; • (10a) 7-Methoxy-8-{3-[3-(4-hydroxy-3-methoxyphenyl)-1-(2,4-dimethyl-3-quinolyl)-2-propen-1-one]propyl}-oxy-(11aS)-1,2,3,11a-5H-pyrrolo[2,1-c][1,4]benzodiazepin-5-one • (10b) 7-Methoxy-8-{4-[3-(4-hydroxy-3-methoxyphenyl)-1-(2,4-dimethyl-3-quinolyl)-2-propen-1-one]butyl}-oxy-(11aS)-1,2,3,11a-5H-pyrrolo[2,1-c][1,4]benzodiazepin-5-one; were evaluated for in vitro anticancer activity against […] derived from […] (leukemia, ovarian, renal, melanoma, CNS, colon, prostate, lung, cervix and breast cancer) as shown in (Table 1, 2 and 3)
(§3) 6b, 6c, 6g, 10a and 10b were evaluated for in vitro anticancer activity against sixty human tumour cells derived from nine cancer types (leukemia, non-small-cell lung, colon, CNS, melanoma, ovarian, prostate, renal and breast cancer) as shown in (Table 1 and 2). For the compound, dose response curves for each cell line were measured at a minimum of five concentrations at 10 fold dilutions. A protocol of 48 h continuous drug exposure was used and a sulforhodamine B (SRB) protein assay was used to estimate cell viability or growth. The concentration causing 50% cell growth inhibition (GI50), total cell growth inhibition (TGI 0% growth) and 50% cell death (LC50, −50% growth) compared with the control was calculated.
(§4) Each cancer type represents the average of six to eight different cancer cell lines.

[2] = system: Melanoma cancer cell lines; assay: as above; details: average of six to eight cell lines, 48 h exposure
Description: as §1, §2, §3, §4

Colon cancer cell lines = assay: as above; details: average of six to eight cell lines, 48 h exposure
Description: as §1, §2, §3, §4

[3] = system: Ovarian cancer cell lines; assay: as above; details: average of six to eight cell lines, 48 h exposure
Description: as §1, §2, §3, §4

Renal cancer cell lines = assay: as above; details: average of six to eight cell lines, 48 h exposure
Description: as §1, §2, §3, §4

[4] = system: Non-small cell lung cancer cell lines; assay: as above; details: average of six to eight cell lines, 48 h exposure
Description: as §1, §2, §3, §4

Breast cancer cell lines = assay: as above; details: average of six to eight cell lines, 48 h exposure
Description: as §1, §2, §3, §4

[5] = system: Prostate cancer cell lines; assay: as above; details: average of six to eight cell lines, 48 h exposure
Description: as §1, §2, §3, §4

CNS cancer cell lines = assay: as above; details: average of six to eight cell lines, 48 h exposure
Description: as §1, §2, §3, §4

HL-60(TB) (Leukemia) = assay: Cytotoxicity in selected cancer cell lines (SRB, 48 h)
Description: as §1, §3
(§5) Each cancer type represents the average of six to nine different cancer cell lines. In vitro evaluation of cytotoxic activity. The compound 6b, 6c, 6g 10a and 10b were evaluated for in vitro anticancer activity against nine human tumour cells derived from six cancer types (leukemia, colon, prostate, melanoma, ovarian, lung, cervix and breast cancer) as shown in Table 3. […] Compounds 6b, 6c, 6g, 10a and 10b have been evaluated for their in vitro cytotoxicity in selected human cancer cell lines of colon (Colo205), lung (NCI-H522, NCI-H226), colon (colo-205), prostate (DU145, PC3), ovarian (IGROV1, HT1080), and breast (MDA-MB-435, Zr-75-1), melanoma (LOXMIVI, VACC-62, SK-MEL-5) origin. A protocol of 48 h continuous drug exposure has been used and an […] has been used to estimate cell viability or growth. The results are expressed as percent of cell growth determined relative to that of untreated control cells

[6] = system: NCI-H226 (Non-small cell lung); assay: as above
Description: as §1, §3, §5

SK-MEL-5 (Melanoma) = assay: as above
Description: as §1, §3, §5

[7] = system: NCI-H23 (Non-small cell lung); assay: as above
Description: as §1, §3, §5

UACC-257 (Melanoma) = assay: as above
Description: as §1, §3, §5

SF-539 (CNS) = assay: as above
Description: as §1, §3, §5

OVCAR-3 (Ovarian) = assay: as above
Description: as §1, §3, §5

786-0 (Renal) = assay: as above
Description: as §1, §3, §5

HCT-15 (Colon) = assay: as above
Description: as §1, §3, §5

UO-31 (Renal) = assay: as above
Description: as §1, §3, §5

CAKI-1 (Renal) = assay: as above
Description: as §1, §3, §5

SW-620 (Colon) = assay: as above
Description: as §1, §3, §5

HCT-116 (Colon) = assay: as above
Description: as §1, §3, §5

U251 (CNS) = assay: as above
Description: as §1, §3, §5

RPMI-8226 (Leukemia) = assay: as above
Description: as §1, §3, §5

A498 (Renal) = assay: as above
Description: as §1, §3, §5

CCRF-CEM (Leukemia) = assay: as above
Description: as §1, §3, §5

ACHN (Renal) = assay: as above
Description: as §1, §3, §5

MALME-3M (Melanoma) = assay: as above
Description: as §1, §3, §5

NCI/ADR-RES (Breast) = assay: as above
Description: as §1, §3, §5

UACC-62 (Melanoma) = assay: as above
Description: as §1, §3, §5

**Q.** With `COc1cc(C=CC(=O)c2c(C)nc3ccccc3c2C)ccc1OCCCCOc1cc2c(cc1OC)C(=O)N1CCC[C@H]1C=N2` [10b, 7-Methoxy-8-{4-[3-(4-hydroxy-3-methoxyphenyl)-1-(2,4-dimethyl-3-quinolyl)-2-propen-1-one]butyl}-oxy-(11aS)-1,2,3,11a-5H-pyrrolo[2,1-c][1,4]benzodiazepin-5-one] as the compound, how does the “Log GI50 (concentration in mol/L causing 50% growth inhibition)” value [1] read?
**A.** −6.94 mol/L

**Q.** And the “Log GI50 (concentration in mol/L causing 50% growth inhibition)” value [2]?
**A.** −6.59 mol/L

**Q.** What about the “Log GI50 (concentration in mol/L causing 50% growth inhibition)” value (Colon cancer cell lines) of the same compound?
**A.** −6.41 mol/L

**Q.** And the “Log GI50 (concentration in mol/L causing 50% growth inhibition)” value [3]?
**A.** −5.28 mol/L

**Q.** What about the “Log GI50 (concentration in mol/L causing 50% growth inhibition)” value (Renal cancer cell lines) of the same compound?
**A.** −6.17 mol/L

**Q.** What about the “Log GI50 (concentration in mol/L causing 50% growth inhibition)” value [4] of the same compound?
**A.** −6.87 mol/L

**Q.** What about the “Log GI50 (concentration in mol/L causing 50% growth inhibition)” value (Breast cancer cell lines) of the same compound?
**A.** −6.52 mol/L

**Q.** What about the “Log GI50 (concentration in mol/L causing 50% growth inhibition)” value [5] of the same compound?
**A.** −5.85 mol/L

**Q.** And the “Log GI50 (concentration in mol/L causing 50% growth inhibition)” value (CNS cancer cell lines)?
**A.** −6.16 mol/L

**Q.** What about the GI50 (HL-60(TB) (Leukemia)) of the same compound?
**A.** 24.5 µM

**Q.** What about the GI50 [6] of the same compound?
**A.** 10.1 µM

**Q.** What about the GI50 (SK-MEL-5 (Melanoma)) of the same compound?
**A.** 23.3 µM

**Q.** What about the GI50 [7] of the same compound?
**A.** 19.5 µM

**Q.** And the GI50 (UACC-257 (Melanoma))?
**A.** 15.9 µM

**Q.** And the GI50 (SF-539 (CNS))?
**A.** 33.7 µM

**Q.** What about the GI50 (OVCAR-3 (Ovarian)) of the same compound?
**A.** 26.3 µM

**Q.** And the GI50 (786-0 (Renal))?
**A.** 14.9 µM

**Q.** And the GI50 (HCT-15 (Colon))?
**A.** 18.4 µM

**Q.** And the GI50 (UO-31 (Renal))?
**A.** 15.2 µM

**Q.** What about the GI50 (CAKI-1 (Renal)) of the same compound?
**A.** 12.9 µM

**Q.** And the GI50 (SW-620 (Colon))?
**A.** 25.9 µM

**Q.** What about the GI50 (HCT-116 (Colon)) of the same compound?
**A.** 14.6 µM

**Q.** What about the GI50 (U251 (CNS)) of the same compound?
**A.** 15.7 µM

**Q.** What about the GI50 (RPMI-8226 (Leukemia)) of the same compound?
**A.** 13.8 µM

**Q.** And the GI50 (A498 (Renal))?
**A.** 19.5 µM

**Q.** And the GI50 (CCRF-CEM (Leukemia))?
**A.** 13.4 µM

**Q.** What about the GI50 (ACHN (Renal)) of the same compound?
**A.** 36.1 µM

**Q.** And the GI50 (MALME-3M (Melanoma))?
**A.** 36.2 µM

**Q.** What about the GI50 (NCI/ADR-RES (Breast)) of the same compound?
**A.** 16.9 µM

**Q.** What about the GI50 (UACC-62 (Melanoma)) of the same compound?
**A.** 22.5 µM
